# Reference: paper PMC4168215, “Perampanel Inhibition of AMPA Receptor Currents in Cultured Hippocampal Neurons” (PLoS ONE, 2014)
# Several values for one entry are separate records, joined by “and”; a condition that tells them apart may be missing. Equal values may be shown once. Read-outs that look alike come from different tables or passages of the source.
# What was measured:
# AMPA receptors = settings: rat forebrain membranes; earlier radioligand binding studies; cited from earlier work
# AMPA receptor [1] = settings: cited from earlier work
# AMPA receptor [2] = test: Whole-cell voltage-clamp recording of AMPA-evoked currents in cultured hippocampal neurons; assay type: cell-based, rat
# Method: (§1) Primary hippocampal neuronal cultures were prepared as previously described. In brief, timed pregnant rats Sprague-Dawley rats (Charles River Laboratories International, Wilmington, MA, USA) were anesthetized with isoflurane. E18 embryos were obtained and the hippocampi were dissected and treated in Hank’s balanced salt solution (HBSS; Invitrogen, Carlsbad, CA, USA) with trypsin (0.03%, Sigma-Aldrich, St. Louis, MO) for 20 min at 37°C. After inactivation of trypsin with neuronal medium (Neurobasal medium; Invitrogen, Life Technologies, Grand Island, NY, USA) supplemented with NS21, 0.5 mM glutamine, 10 mM HEPES) plus 5% horse serum (HS; Invitrogen), the tissue was washed twice with HBSS, and triturated with a fire-polished Pasteur pipette. After non-dissociated pieces of tissue settled, cells in the supernatant were collected by centrifugation (1100 rpm at 200×g for 3.5 min), re-suspended in neuronal medium plus 5% horse serum, counted, and plated on coverslips (Warner Instruments, Hamden, CT, USA) coated with 0.1% (w/v) poly-L-lysine (Peptides International, Louisville, KY, USA). The cell density was 3×10^4 cm^−2 in plating medium. After 4 h, the medium was replaced with serum-free neuronal medium. Cells were grown in a humidified environment of 95% air/5% CO2 at 37°C. One third of medium was changed after 5 days in vitro (DIV) and weekly thereafter.
# (§2) Whole-cell voltage clamp experiments were performed 7–25 days after plating. […]. The pipette solution contained 145 CsCl, 0.1 mM CaCl2, 2 mM MgCl2, 1 mM EGTA, and 5 mM HEPES. For NMDA-mediated currents, recordings were made in a bath solution containing 135 mM NaCl, 5 mM KCl, 0.2 mM CaCl2, 10 mM HEPES, 1 µM TTX, 10 µM bicuculline, 1 µM strychnine, 10 µM NBQX, 3 µM glycine. The pipette solution contained 145 CsCl, 0.1 mM CaCl2, 1 mM EGTA, and 5 mM HEPES.
# (§3) Recordings were made with an Axopatch 200B patch-clamp amplifier (Axon Instruments, Foster City, CA, USA). Whole-cell currents were filtered at 2 kHz and digitized at 10 kHz. All neurons were voltage-clamped at −60 mV. The following drugs dissolved in bath solution were applied using a fast perfusion system (VC^3-8XP, ALA Scientific Instrument, NY, USA): kainate (3, 10, 100 µM), AMPA (10, 30, 100 µM), NMDA (10, 100 µM), and perampanel (0.01–30 µM). All were from Sigma-Aldrich except perampanel, which was from Eisai Inc. Solution reservoirs contained the drugs separately or the combination of an agonist (kainate, AMPA or NMDA) plus perampanel. Each solution reservoir was connected to a pinch valve of the 8-channel VC^3-8XP perfusion system, which fed solution to an 8-to-1 mini-manifold (MP-8, Warner Instruments, Hamden, CT) that has a dead-volume of 3.5 µl when switching between solutions. Only one perfusion line was open at a time. The opening speed was 15–20 ms. The command for switching among perfusion lines was generated by the pClamp software and delivered to the control box of the perfusion system via a TTL connection.
# AMPA receptor [3] = test: Whole-cell voltage-clamp recording of kainate-evoked (AMPA receptor) currents in cultured hippocampal neurons; assay type: cell-based, rat; settings: for percent inhibition of kainate-evoked current: sample current
# Method: as §1, §2, §3
# NMDA receptor [4] = settings: CA1 area, rat hippocampal slices; cited from earlier work
# AMPA receptor [5] = target: AMPA receptor; parameters: method as in PMID 21635236; settings: cultured rat cortical neurons; read-out: IC50, inhibition of AMPA-induced Ca2+ influx; cited from earlier work
# AMPA receptor [6] = settings: CA1 area, rat hippocampal slices; read-out: IC50, inhibition of AMPA receptor component of the field response; cited from earlier work
# NMDA receptor [7] = settings: 30 µM; studies to date; cited from earlier work
# kainate receptor = settings: CA1 area, rat hippocampal slices; cited from earlier work
# NMDA receptor [8] = test: Whole-cell voltage-clamp recording of NMDA-evoked currents in cultured hippocampal neurons; assay type: cell-based, rat
# Method: as §1, §2
# Recordings were made with an Axopatch 200B patch-clamp amplifier (Axon Instruments, Foster City, CA, USA). Whole-cell currents were filtered at 2 kHz and digitized at 10 kHz. All neurons were voltage-clamped at −60 mV. […]
# [9] = 1 µM perampanel, 10, 30 and 100 µM AMPA
# [10] = 3 µM perampanel and 100 µM AMPA applied simultaneously
# [11] = 30 µM perampanel preapplied 5 s then coapplied, 10 and 100 µM NMDA
smiles,measurement,setting,value
"CCN(CC)Cc1cccc(/C=C/c2nc3ccc(F)cc3c(=O)n2-c2ccccc2Cl)n1 [CP-465,022]",displacement of [3H]perampanel binding,AMPA receptors,displaced
"CC1=NN=C(c2ccc(N)cc2)c2cc3c(cc2C1)OCO3 [GYKI 52466, 1-(4-amino-phenyl)-4-methyl-7,8-methyl-endioxyl-5H-2,3-benzodiaze pine]",displacement of [3H]perampanel binding,AMPA receptors,displaced
same,inhibition of steady AMPA receptor current,AMPA receptor [1]; 30 µM,~50%
same,time in which block occurs,AMPA receptor [1]; 30 µM,several hundred milliseconds
same,association rate,AMPA receptor [1],160000 M⁻¹ s⁻¹
same,dissociation rate,AMPA receptor [1],3.2 s⁻¹
"N#Cc1ccccc1-c1cc(-c2ccccn2)cn(-c2ccccc2)c1=O [Perampanel, 2-(2-oxo-1-phenyl-5-pyridin-2-yl-1,2-dihydropyridin-3-yl)benzonitrile]",effect on decay time constant of AMPA-evoked currents,AMPA receptor [2]; [9],did not alter
same,effect on peak to late ratio of AMPA-evoked currents,AMPA receptor [2]; [9],not statistically different from control
same,effect on rise time constant of AMPA-evoked currents,AMPA receptor [2]; [9],did not alter
same,reduction of peak AMPA response,AMPA receptor [2]; [10],17%
same,time to full block,AMPA receptor [2]; [10],≤ 5 s
same,reduction in the peak and late AMPA responses,AMPA receptor [2]; 3 µM perampanel started 5 s before 100 µM AMPA,~60%
same,time constant (τ) of inhibition of AMPA receptor currents,"AMPA receptor [2]; 3 µM perampanel, currents evoked by AMPA and kainate",~1 s
same,time over which block develops without preexposure,"AMPA receptor [2]; 3 µM perampanel, kainate- and AMPA-evoked currents (Fig. 3)",~3 s
same,IC50,"AMPA receptor [2]; 10 µM AMPA, holding −60 mV, perampanel preapplied 5 s then coapplied, read-out: AMPA Response IC50, Peak Current",400 nM
same,IC50,"AMPA receptor [2]; 10 µM AMPA, late current at end of 5 s AMPA perfusion, read-out: AMPA Response IC50, Late Current",400 nM
same,IC50,"AMPA receptor [2]; 30 µM AMPA, holding −60 mV, perampanel preapplied 5 s then coapplied, read-out: AMPA Response IC50, Peak Current",800 nM
same,IC50,"AMPA receptor [2]; 30 µM AMPA, late current at end of 5 s AMPA perfusion, read-out: AMPA Response IC50, Late Current",900 nM
same,Kd,"AMPA receptor [2]; 100 µM AMPA-evoked currents, read-out: kinetically determined binding affinity (KD = k–1/k1)",3.9 µM
same,mean off rate determined from the τoff values,"AMPA receptor [2]; 100 µM AMPA, 1, 3 and 10 µM perampanel",0.68 s⁻¹
same,"unbinding rate constant k–1 (rate of unblock, dissociation rate)","AMPA receptor [2]; 100 µM AMPA, 1, 3 and 10 µM perampanel, intercept of kapp vs concentration",0.58 s⁻¹
same,"binding rate constant k1 (rate of block, association rate)","AMPA receptor [2]; 100 µM AMPA, 1, 3 and 10 µM perampanel, slope of kapp vs concentration",1.5×10^5 M^−1 s^−1 and 1.51±0.10×10^5 M^−1 s^−1
same,IC50,"AMPA receptor [2]; 100 µM AMPA, holding −60 mV, perampanel preapplied 5 s then coapplied, read-out: AMPA Response IC50, Peak Current",900 nM
same,IC50,"AMPA receptor [2]; 100 µM AMPA, late current at end of 5 s AMPA perfusion, read-out: AMPA Response IC50, Late Current",1200 nM
same,percent inhibition of kainate-evoked current,"AMPA receptor [3]; 0.1 µM perampanel, 100 µM kainate",20%
same,percent inhibition of kainate-evoked current,"AMPA receptor [3]; 0.3 µM perampanel, 100 µM kainate",41%
same,percent inhibition of kainate-evoked current,"AMPA receptor [3]; 1 µM perampanel, 100 µM kainate",55%
same,IC50,"AMPA receptor [3]; 3 µM kainate, holding −60 mV, perampanel preapplied 5 s then coapplied, read-out: Kainate Response IC50",580 nM
same,time constant (τ) of development of block,AMPA receptor [3]; 3 µM perampanel started 5 s after onset of 100 µM kainate,1.2 ± 0.1 s
same,reduction of the kainate-induced current,"AMPA receptor [3]; 3 µM perampanel started 5 s before kainate (100 µM), one neuron",~73%
same,time constant (τ) of recovery from block,"AMPA receptor [3]; 3 µM perampanel, 100 µM kainate, after termination of perampanel",3.3 ± 1.5 s
same,percent inhibition of kainate-evoked current,"AMPA receptor [3]; 3 µM perampanel, 100 µM kainate",80%
same,IC50,"AMPA receptor [3]; 10 µM kainate, holding −60 mV, perampanel preapplied 5 s then coapplied, read-out: Kainate Response IC50",510 nM
same,IC50,"AMPA receptor [3]; 100 µM kainate, holding −60 mV, perampanel preapplied 5 s then coapplied, read-out: Kainate Response IC50",580 nM
same,IC50,"AMPA receptor [3]; overall value, similar at all kainate concentrations (3–100 µM), read-out: IC50, block of non-desensitizing kainate-evoked currents",560 nM
same,effect on NMDA receptor component of the field response,NMDA receptor [4],without affecting
same,IC50,AMPA receptor [5],93 nM
same,IC50,AMPA receptor [6],230 nM
same,inhibition of NMDA responses,NMDA receptor [7],only minimally inhibits
same,effect on kainate receptor component of the field response,kainate receptor,without affecting
same,effect on mean amplitude of late NMDA-evoked current,NMDA receptor [8]; [11],failed to affect
same,effect on mean amplitude of peak NMDA-evoked current,NMDA receptor [8]; [11],failed to affect
same,effect on NMDA receptor currents,NMDA receptor [8]; summary statement,did not affect
